Laboratory results published in publication PMC11988454, “Discovery of synthetic small molecules targeting the central regulator of Salmonella pathogenicity” (Science Advances, 2025).

How the values were obtained:
HilC and RtsA = experiment: Whole-cell PhilA activation by rhamnose-induced hilC or rtsA in ΔhilD backgrounds; assay type: cell-based, S. Typhimurium; conditions: C26 100 μM, rhamnose 2 mM
Description: Next, we investigated the selectivity of C26 for HilD using the whole-cell PhilA activation assay. In the absence of HilD, the pool of HilC and RtsA is insufficient to activate the expression of hilA. Therefore, assessing the sensitivity of HilC and RtsA to C26 requires PhilA to be activated in a HilD-independent manner. To create such a condition, we used a plasmid-encoded hilC or rtsA under the control of a rhamnose-inducible promoter.
A whole-cell reporter gene assay was used to quantify HilD transcriptional activity. Strain PhilA-sfGFP and the isogenic ΔhilD PhilA-sfGFP were used for this purpose. Cultures were performed in 1 ml of LB supplemented with 0.3 M NaCl. Compounds at different concentrations or 1% (v/v) DMSO were added to the corresponding tubes. Cultures were incubated at 37°C and 180 rpm for 5 hours. Cells were pelleted, resuspended in 100 μl of PBS, and then transferred into a 96-well black clear-bottom plate (Thermo Fisher Scientific, USA). Fluorescence intensity was measured with a Tecan Spark microplate reader with an excitation wavelength of 485 nm and an emission wavelength of 510 nm. Dose-response curves and IC50 values were calculated using CDD Vault.

HilD [1] = target: T1, HilD (Salmonella typhimurium, UniProt P0CL08); experiment: EMSA, binding to hilA promoter, HilD; assay type: biochemical, S. Typhimurium
T1 construct: His6-SUMO (N, cleaved yes); made in house; host or cells: E. coli C41(DE3)
T1 sequence (P0CL08 whole entry): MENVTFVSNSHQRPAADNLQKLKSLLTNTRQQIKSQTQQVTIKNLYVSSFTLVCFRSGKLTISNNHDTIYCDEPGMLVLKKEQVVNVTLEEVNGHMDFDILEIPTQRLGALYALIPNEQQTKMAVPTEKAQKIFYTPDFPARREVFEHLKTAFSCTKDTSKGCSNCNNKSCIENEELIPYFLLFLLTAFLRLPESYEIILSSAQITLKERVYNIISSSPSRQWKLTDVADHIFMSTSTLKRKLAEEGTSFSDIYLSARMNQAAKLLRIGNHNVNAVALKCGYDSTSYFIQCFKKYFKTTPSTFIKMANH
Experimental: EMSAs were performed similarly to as described previously ([39]) using a 62–base pair double-stranded (dsDNA) fragment of the hilA promoter, encompassing the A1 binding site ([82]). dsDNA fragments were generated by melting the complementary primers PhilA_A1_f / PhilA_A1_r (table S10) together in TE buffer [10 mM Tris (pH 8.0) and 1 mM EDTA] at 95°C for 10 min before slowly cooling to r.t. The forward primer was modified with a 5′-Cy5 fluorescent dye for detection. The protein (600 nM) was incubated with 50 nM labeled DNA in EMSA buffer [20 mM Tris (pH 8.0), 100 mM KCl, 100 μM EDTA, and 3% glycerol]. C26 was diluted first in DMSO and subsequently 1:100 into the protein-DNA sample. Samples were incubated at 37°C for 15 min, supplemented with diluted DNA loading dye, and separated on a 1.5-mm-thick, 6% (w/v) TBE polyacrylamide gel at 6°C at a constant voltage of 100 V. Gels were imaged using a ChemiDocMP imaging system (Bio-Rad).

S. Typhimurium SL1344 = experiment: Growth in LB medium (OD at 600 nm); assay type: cell-based; conditions: C26 at different concentrations
Description: Experiment performed in a 96-well plate. Growth assessed by measuring the OD at 600 nm (N = 3 biological replicates).

HilD-HilE heterodimer = HilD-HilE heterodimer (Salmonella typhimurium, UniProt P0CL08); experiment: MST dimerization assay HilD-HilE; assay type: binding, S. Typhimurium; conditions: 100 μM compound
Chain of HilD-HilE heterodimer (P0CL08 whole entry, one chain of several): as the sequence (P0CL08 whole entry) above
Experimental: MST measurements for the binding of HilD to HilE were performed as previously described ([39]). In summary, enhanced yellow fluorescent protein (EYFP)-HilD (100 nM) was incubated with 100 μM either oleic acid or C26 [with a final concentration of 1% (v/v) DMSO] for 10 min at r.t. (22° to 25°C) and subsequently mixed 1:1 with varying concentrations of HilE. Samples were incubated together for 10 min at r.t., centrifuged for 5 min, and loaded to standard capillaries (NanoTemper Technologies GmbH, no. MO-K022). MST runs were performed at 25°C on a NanoTemper Monolith NT.115, with an excitation power of 60% and medium MST power. Data were analyzed using the MO.Affinity Analysis v2.3 software, and affinity constants were calculated using the Kd model.

HilD [2] = target: T2, HilD (Salmonella typhimurium, UniProt E1WAC0); experiment: Whole-cell HilD activity assay (PhilA-sfGFP activation); assay type: cell-based, S. Typhimurium; conditions: C26 100 μM, strain overexpressing hilD
T2 construct: Strain PhilA-sfGFP and the isogenic ΔhilD PhilA-sfGFP were used for this purpose; endogenous in cells; host or cells: S. Typhimurium SL1344 strain PhilA-sfGFP
T2 sequence (E1WAC0 whole entry): as the sequence (P0CL08 whole entry) above

HeLa cells = experiment: In vitro toxicity, ApoTox-Glo assay; assay type: cell-based
male ICR mice = experiment: Maximum tolerated dose (MTD) experiment, oral
Experimental: C26 was formulated in 5% Tween 20 (v/v), 50% lecithin (from soy bean: 40 mg in 800 μl of distilled water), and 45% PBS at 0.6, 2, and 6 mg/ml for oral administration. A dosing volume of 5 ml/kg was applied. C26 was administered orally to groups of three male Institute of Cancer Research (ICR) mice (23 ± 3 g) at an initiating dose of 3 mg/kg in an MTD setup. The animals received an initial dose of 3 mg/kg. If the animals survived for 72 hours, the group (10 mg/kg) was tested. If the animals survived for 72 additional hours, the group (30 mg/kg) was tested. Experiments were performed by Pharmacology Discovery Services Taiwan Ltd., in general accordance with the “Guide for the Care and Use of Laboratory Animals: Eighth Edition” (National Academies Press, Washington, DC, 2011). The animal care and protocol were reviewed and approved by the Institutional Animal Care and Use Committee (IACUC) at Pharmacology Discovery Services Taiwan Ltd.

CN(CC(=O)NCc1ccc2c(c1)OCO2)Cc1ccc(Br)s1 [C26, N-(benzo[d][1,3]dioxol-5-ylmethyl)-2-{[(5-bromothiophen-2-yl)methyl](methyl)amino}acetamide]
PhilA activation with hilC and/or rtsA as sole activators (HilC and RtsA): did not lead to a reduction of PhilA activation
DNA binding activity of HilD (hilA promoter) (HilD [1]): dose-dependent inhibition of the DNA binding activity
growth of S. Typhimurium (S. Typhimurium SL1344): did not impair the growth
formation of HilD-HilE heterodimers (HilD-HilE heterodimer): no effect on heterodimerization
decrease of PhilA activation (HilD [2]; WT background): 14%
decrease of PhilA activation (HilD [2]; ΔhilD ΔhilC ΔrtsA background): 18%
TC50 viability (HeLa cells; 12 hours exposure): could not be calculated because of low toxicity levels
TC50 viability (HeLa cells; 18 hours exposure): 98 µM
Toxicity (death / test) (male ICR mice; PO 3 mg/kg, 1 h): 0/3
Toxicity (death / test) (male ICR mice; PO 3 mg/kg, 2 h): 0/3
Toxicity (death / test) (male ICR mice; PO 3 mg/kg, 24 h): 0/3
Toxicity (death / test) (male ICR mice; PO 3 mg/kg, 48 h): 0/3
Toxicity (death / test) (male ICR mice; PO 3 mg/kg, 72 h): 0/3
Toxicity (death / test) (male ICR mice; PO 10 mg/kg, 1 h): 0/3
Toxicity (death / test) (male ICR mice; PO 10 mg/kg, 2 h): 0/3
Toxicity (death / test) (male ICR mice; PO 10 mg/kg, 24 h): 0/3
Toxicity (death / test) (male ICR mice; PO 10 mg/kg, 48 h): 0/3
Toxicity (death / test) (male ICR mice; PO 10 mg/kg, 72 h): 0/3
Toxicity (death / test) (male ICR mice; PO 30 mg/kg, 1 h): 0/3
Toxicity (death / test) (male ICR mice; PO 30 mg/kg, 2 h): 0/3
Toxicity (death / test) (male ICR mice; PO 30 mg/kg, 24 h): 0/3
Toxicity (death / test) (male ICR mice; PO 30 mg/kg, 48 h): 0/3
Toxicity (death / test) (male ICR mice; PO 30 mg/kg, 72 h): 0/3
abnormalities at termination (male ICR mice; mouse, in vivo): no notable abnormalities
Body weight (g) 72 h (male ICR mice; mouse, in vivo, po, 3 mg/kg): 29 g
Body weight (g) Pre-dose (male ICR mice; mouse, in vivo, po, 10 mg/kg): 25 g
mortality and adverse effects (male ICR mice; oral 3, 10 and 30 mg/kg, mice): Neither mortality nor notable adverse effects
